Patent publication US8466181B2, “1,2,3-triazole-imidazole compounds” (Hoffmann-La Roche Inc., priority 2010, dated 2013)
Where two headings read alike, the source gives them in different places. Each block holds one molecule with its values, some of them ahead of it.

Target: T1, human GABA A receptor α5β3γ2 (GABA Aa5) (Homo sapiens, UniProt P18507+P31644)
T1 construct: expressed in transfected cells; host or cells: HEK293 cells, transiently transfected; membranes prepared
Test: [3H]flumazenil competition binding, HEK293 cells expressing human receptors
Description: The ability of compounds present invention to bind to GABA A receptor subtypes was determined by competition for [^3H]flumazenil (85 Ci/mmol; Roche) binding to HEK293 cells expressing rat (stably transfected) or human (transiently transfected) receptors of composition α1β2/3γ2, α2β3γ2, α3β3γ2 and α5β3γ2.
Cell pellets were suspended in Krebs-tris buffer (4.8 mM KCl, 1.2 mM CaCl2, 1.2 mM MgCl2, 120 mM NaCl, 15 mM Tris; pH 7.5; binding assay buffer), homogenized by polytron for ca. 20 sec on ice and centrifuged for 60 min at 4° C. (50000 g; Sorvall, rotor: SM24=20000 rpm). The cell pellets were resuspended in Krebs-tris buffer and homogenized by polytron for ca. 15 sec on ice. Protein was measured (Bradford method, Bio-Rad) and aliquots of 1 mL were prepared and stored at −80° C.
Assays were incubated to equilibrium for 1 hour at 4° C. and harvested onto GF/C uni-filters (Packard) by filtration using a Packard harvester and washing with ice-cold wash buffer (50 mM Tris; pH 7.5). After drying, filter-retained radioactivity was detected by liquid scintillation counting.
Ki values were calculated using Excel-Fit (Microsoft) and are the means of two determinations.
Representative test results, obtained by the above described assay measuring binding affinity to HEK293 cells expressing human (h) receptors, are shown in Table 1 below.

[1] = displacement of [3H]flumazenil 0.5 nM, HEK293 transiently transfected human receptors, means of two determinations, read-out: hKi (GABA Aa5)

Structure (SMILES): CC(=O)c1ccc(-n2cnc(-c3c(-c4ccc(F)cc4)nnn3C)c2)cc1 [Example 1, 1-(4-{4-[5-(4-Fluoro-phenyl)-3-methyl-3H-[1,2,3]triazol-4-yl]-imidazol-1-yl}-phenyl)-ethanone]
Ki [1]: 27.2 nM

Structure (SMILES): COC(=O)c1ccc(-n2cnc(-c3c(-c4ccc(F)cc4)nnn3C)c2)cc1 [Example 2, 4-{4-[5-(4-Fluoro-phenyl)-3-methyl-3H-[1,2,3]triazol-4-yl]-imidazol-1-yl}-benzoic acid methyl ester]
Ki [1]: 41.2 nM

Structure (SMILES): CC(C)NC(=O)c1ccc(-n2cnc(-c3c(-c4ccc(F)cc4)nnn3C)c2)cc1 [Example 3, 4-{4-[5-(4-Fluoro-phenyl)-3-methyl-3H-[1,2,3]triazol-4-yl]-imidazol-1-yl}-N-isopropyl-benzamide]
Ki [1]: 21.1 nM

Structure (SMILES): Cn1nnc(-c2ccc(F)cc2)c1-c1cn(-c2ccc(C(=O)NC3CCOCC3)cc2)cn1 [Example 4, 4-{4-[5-(4-Fluoro-phenyl)-3-methyl-3H-[1,2,3]triazol-4-yl]-imidazol-1-yl}-N-(tetrahydropyran-4-yl)-benzamide]
Ki [1]: 36.6 nM

Structure (SMILES): Cn1nnc(-c2ccc(F)cc2)c1-c1cn(-c2ccc(C(=O)NC3(C)COC3)cc2)cn1 [Example 5, 4-{4-[5-(4-Fluoro-phenyl)-3-methyl-3H-[1,2,3]triazol-4-yl]-imidazol-1-yl}-N-(3-methyl-oxetan-3-yl)-benzamide]
Ki [1]: 23.8 nM

Structure (SMILES): Cn1nnc(-c2ccc(F)cc2)c1-c1cn(-c2ccc(C(=O)N3CC4(COC4)C3)cc2)cn1 [Example 6, (4-{4-[5-(4-Fluoro-phenyl)-3-methyl-3H-[1,2,3]triazol-4-yl]-imidazol-1-yl}-phenyl)-(2-oxa-6-aza-spiro[3.3]hept-6-yl)-methanone]
Ki [1]: 51.3 nM

Structure (SMILES): Cn1nnc(-c2ccc(F)cc2)c1-c1cn(-c2ccc(C(N)=O)cc2)cn1 [Example 7, 4-{4-[5-(4-Fluoro-phenyl)-3-methyl-3H-[1,2,3]triazol-4-yl]-imidazol-1-yl}-benzamide]
Ki [1]: 18.8 nM

Structure (SMILES): Cn1nnc(-c2ccccc2F)c1-c1cn(-c2ccc(C(F)(F)F)cc2)cn1 [Example 8, 4-(2-Fluorophenyl)-1-methyl-5-(1-(4-(trifluoromethyl)phenyl)-1H-imidazol-4-yl)-1H-1,2,3-triazole]
Ki [1]: 84.3 nM

Structure (SMILES): Cn1nnc(-c2ccccc2F)c1-c1cn(-c2ccc([N+](=O)[O-])cc2)cn1 [Example 9, 4-(2-Fluorophenyl)-1-methyl-5-(1-(4-nitrophenyl)-1H-imidazol-4-yl)-1H-1,2,3-triazole]
Ki [1]: 76.3 nM

Structure (SMILES): CC(=O)c1ccc(-n2cnc(-c3c(-c4ccccc4F)nnn3C)c2)cc1 [Example 10, 1-(4-(4-(4-(2-Fluorophenyl)-1-methyl-1H-1,2,3-triazol-5-yl)-1H-imidazol-1-yl)phenyl)ethanone]
Ki: 29.6 nM

Structure (SMILES): CC(C)NC(=O)c1ccc(-n2cnc(-c3c(-c4ccc(F)cc4)nnn3C)c2)nc1 [Example 11, 6-{4-[5-(4-Fluoro-phenyl)-3-methyl-3H-[1,2,3]triazol-4-yl]-imidazol-1-yl}-N-isopropyl-nicotinamide]
Ki [1]: 14.7 nM

Structure (SMILES): Cn1nnc(-c2ccc(F)cc2)c1-c1cn(-c2ccc(C(=O)NC3CCOCC3)cn2)cn1 [Example 12, 6-{4-[5-(4-Fluoro-phenyl)-3-methyl-3H-[1,2,3]triazol-4-yl]-imidazol-1-yl}-N-(tetrahydropyran-4-yl)-nicotinamide]
Ki [1]: 33 nM

Structure (SMILES): Cn1nnc(-c2ccc(F)cc2)c1-c1cn(-c2ccc(C(=O)NC3(C)COC3)cn2)cn1 [Example 13, 6-{4-[5-(4-Fluoro-phenyl)-3-methyl-3H-[1,2,3]triazol-4-yl]-imidazol-1-yl}-N-(3-methyl-oxetan-3-yl)-nicotinamide]
Ki [1]: 14.6 nM

Structure (SMILES): Cn1nnc(-c2ccc(F)cc2)c1-c1cn(-c2ccc(C(=O)N3CC4(COC4)C3)cn2)cn1 [Example 14, (6-{4-[5-(4-Fluoro-phenyl)-3-methyl-3H-[1,2,3]triazol-4-yl]-imidazol-1-yl}-pyridin-3-yl)-(2-oxa-6-aza-spiro[3.3]hept-6-yl)-methanone]
Ki [1]: 37.6 nM

Structure (SMILES): Cn1nnc(-c2ccc(F)cc2)c1-c1cn(-c2ccc(C(F)(F)F)cn2)cn1 [Example 15, 2-{4-[5-(4-Fluoro-phenyl)-3-methyl-3H-[1,2,3]triazol-4-yl]-imidazol-1-yl}-5-trifluoromethyl-pyridine]
Ki [1]: 82.2 nM

Structure (SMILES): Cn1nnc(-c2ccc(F)cc2)c1-c1cn(-c2ccc(C(N)=O)cn2)cn1 [Example 16, 6-(4-(4-(4-Fluorophenyl)-1-methyl-1H-1,2,3-triazol-5-yl)-1H-imidazol-1-yl)nicotinamide]
Ki [1]: 12.1 nM

Structure (SMILES): Cn1nnc(-c2ccccc2F)c1-c1cn(-c2ccc(C(=O)NC3CCOCC3)cn2)cn1 [Example 22, 6-(4-(4-(2-Fluorophenyl)-1-methyl-1H-1,2,3-triazol-5-yl)-1H-imidazol-1-yl)-N-(tetrahydro-2H-pyran-4-yl)nicotinamide]
Ki [1]: 43.3 nM

Structure (SMILES): Cn1nnc(-c2ccccc2F)c1-c1cn(-c2ccc(C(=O)N3CC4(COC4)C3)cn2)cn1 [Example 26, (6-(4-(4-(2-Fluorophenyl)-1-methyl-1H-1,2,3-triazol-5-yl)-1H-imidazol-1-yl)pyridin-3-yl)(2-oxa-6-azaspiro[3.3]heptan-6-yl)methanone]
Ki [1]: 66.5 nM

Structure (SMILES): Cc1nnn(-c2ccc(F)cc2)c1-c1cn(-c2ccc(C(F)(F)F)cc2)cn1 [Example 31, 1-(4-Fluoro-phenyl)-4-methyl-5-[1-(4-trifluoromethyl-phenyl)-1H-imidazol-4-yl]-1H-[1,2,3]triazole]
Ki [1]: 49.2 nM

Structure (SMILES): CC(=O)c1ccc(-n2cnc(-c3c(C)nnn3-c3ccc(F)cc3)c2)cc1 [Example 32, 1-(4-{4-[3-(4-Fluoro-phenyl)-5-methyl-3H-[1,2,3]triazol-4-yl]-imidazol-1-yl}-phenyl)-ethanone]
Ki [1]: 25.9 nM

Structure (SMILES): COC(=O)c1ccc(-n2cnc(-c3c(C)nnn3-c3ccccc3F)c2)cc1 [Example 33, Methyl 4-(4-(1-(2-fluorophenyl)-4-methyl-1H-1,2,3-triazol-5-yl)-1H-imidazol-1-yl)benzoate]
Ki [1]: 34.5 nM

The remaining lines, values ahead:

Ki [1]: 68.8 nM
Structure (SMILES): COC(=O)c1ccc(-n2cnc(-c3c(-c4ccccc4Cl)nnn3C)c2)nc1 [Example 17, Methyl 6-(4-(4-(2-chlorophenyl)-1-methyl-1H-1,2,3-triazol-5-yl)-1H-imidazol-1-yl)nicotinate]

Ki [1]: 75.1 nM
Structure (SMILES): CC(C)NC(=O)c1ccc(-n2cnc(-c3c(-c4ccccc4Cl)nnn3C)c2)nc1 [Example 18, 6-(4-(4-(2-Chlorophenyl)-1-methyl-1H-1,2,3-triazol-5-yl)-1H-imidazol-1-yl)-N-isopropylnicotinamide]

Ki [1]: 66.2 nM
Structure (SMILES): Cn1nnc(-c2ccccc2Cl)c1-c1cn(-c2ccc(C(N)=O)cn2)cn1 [Example 19, 6-(4-(4-(2-Chlorophenyl)-1-methyl-1H-1,2,3-triazol-5-yl)-1H-imidazol-1-yl)nicotinamide]

Ki [1]: 16.2 nM
Structure (SMILES): COC(=O)c1ccc(-n2cnc(-c3c(-c4ccccc4F)nnn3C)c2)nc1 [Example 20, Methyl 6-(4-(4-(2-fluorophenyl)-1-methyl-1H-1,2,3-triazol-5-yl)-1H-imidazol-1-yl)nicotinate]

Ki [1]: 86 nM
Structure (SMILES): Cn1nnc(-c2ccccc2F)c1-c1cn(-c2ccc(C(=O)O)cn2)cn1 [Example 21, 6-(4-(4-(2-Fluorophenyl)-1-methyl-1H-1,2,3-triazol-5-yl)-1H-imidazol-1-yl)nicotinic acid]

Ki [1]: 54.9 nM
Structure (SMILES): CC(C)NC(=O)c1ccc(-n2cnc(-c3c(-c4ccccc4F)nnn3C)c2)nc1 [Example 23, 6-(4-(4-(2-Fluorophenyl)-1-methyl-1H-1,2,3-triazol-5-yl)-1H-imidazol-1-yl)-N-isopropylnicotinamide]

Ki [1]: 21.3 nM
Structure (SMILES): Cn1nnc(-c2ccccc2F)c1-c1cn(-c2ccc(C(=O)NCC(C)(C)O)cn2)cn1 [Example 24, 6-(4-(4-(2-Fluorophenyl)-1-methyl-1H-1,2,3-triazol-5-yl)-1H-imidazol-1-yl)-N-(2-hydroxy-2-methylpropyl)nicotinamide]

Ki [1]: 19.3 nM
Structure (SMILES): Cn1nnc(-c2ccccc2F)c1-c1cn(-c2ccc(C(N)=O)cn2)cn1 [Example 25, 6-(4-(4-(2-Fluorophenyl)-1-methyl-1H-1,2,3-triazol-5-yl)-1H-imidazol-1-yl)nicotinamide]

Ki [1]: 16.1 nM
Structure (SMILES): Cn1nnc(-c2ccccc2F)c1-c1cn(-c2ccc(C(=O)NC3(C)COC3)cn2)cn1 [Example 27, 6-(4-(4-(2-Fluorophenyl)-1-methyl-1H-1,2,3-triazol-5-yl)-1H-imidazol-1-yl)-N-(3-methyloxetan-3-yl)nicotinamide]

Ki [1]: 32.4 nM
Structure (SMILES): Cn1nnc(-c2ccccc2F)c1-c1cn(-c2ccc(C(=O)NN3CCOCC3)cn2)cn1 [Example 28, 6-(4-(4-(2-Fluorophenyl)-1-methyl-1H-1,2,3-triazol-5-yl)-1H-imidazol-1-yl)-N-morpholinonicotinamide]

Ki [1]: 9.5 nM
Structure (SMILES): Cn1nnc(-c2ccccc2F)c1-c1cn(-c2ccc(C(=O)NC3CC3)cn2)cn1 [Example 29, N-Cyclopropyl-6-(4-(4-(2-fluorophenyl)-1-methyl-1H-1,2,3-triazol-5-yl)-1H-imidazol-1-yl)nicotinamide]

Ki [1]: 65 nM
Structure (SMILES): Cn1nnc(-c2ccccc2F)c1-c1cn(-c2ccc(C(F)(F)F)cn2)cn1 [Example 30, 2-(4-(4-(2-Fluorophenyl)-1-methyl-1H-1,2,3-triazol-5-yl)-1H-imidazol-1-yl)-5-(trifluoromethyl)pyridine]
